Tested on: endogenous microglia
Assay: Depletion of endogenous microglia by PLX5622 diet
Assay type: in vivo, mouse
Conditions: PLX5622 diet for 21 days
Excerpt: FIG. 8. Circulation-derived myeloid cells adopt a ramified microglia-like morphology upon brain engraftment. (A and B) Flow cytometry gating for analysis of donor chimerism in PB leukocytes (CD45+) (A) and brain myeloid cells (CD45+CD11b+)(B). (C) Representative images of circulation-derived myeloid cells (CDMCs)([…]) and host microglia (Iba-1+GFP−) cells and DAPI in the cortex of recipient mice at the indicated time points. Scale bars:50 μm. (D) Representative images of Iba-1+ cells in the cortex of mice treated with control or PLX5622 diet for 21 days. The right panels in each group are enlarged images of the boxed areas in the left panels. Scale bars: […]. (E) Iba-1+ cell density in the indicated brain regions was analyzed by microscopy (Mean±SEM, n=3/group, 6 brain slices/animal were quantified. ***p<0.001, Student's t-test). […]
Immunofluorescence microscopy. […] Images were obtained using a Zeiss LSM710 confocal microscope or Zeiss AxioImager motorized widefield fluorescence microscope.
Image analysis. […] For morphological analyses, Iba1+ cells and GFP+ cells in the indicated brain regions were analyzed. The number of Iba1+ cells, and number of branch points were manually counted using ImageJ. […] The length of processes in Iba-1+ cells was analyzed semi-automatically using NeuronJ plugin. The ratio of cell body to total cell area was analyzed using FracLac plugin as described. […]

COc1ncc(F)cc1CNc1ccc(Cc2c[nH]c3ncc(C)cc23)c(F)n1 [PLX5622]
elimination of endogenous microglia (Iba-1+ cell density): efficient elimination of endogenous microglia throughout the brain
